Measured values taken from US20220142995A1, “DUAL ATM AND DNA-PK INHIBITORS FOR USE IN ANTI-TUMOR THERAPY” (XRAD Therapeutics, Inc., priority 2019, published 2022).

System: TBK1
Assay: Immunoblot of TBK1 phosphorylation in HCT116 cells (p53 wild-type or p53-/-)
Assay type: cell-based
Description: Cell Culture. The MCF-7 human breast carcinoma cell line and HCT116 p53 wild-type and HCT116 p53−/− cell lines were obtained from ATCC. […]
Immunoblotting. […] One hour after IR, cells were lysed in RIPA buffer ([…], pH 8.0, 150 mM NaCl, 0.1% SDS, 0.5% sodium deoxycholate, 1% IGEPAL® CA-630 (Sigma, 18896) for 20 min at 4° C. in the presence of protease and phosphatase inhibitor cocktails (Roche, #04693159001 & #04906837001). Cell lysates were centrifuged at 13,200 g for 10 min at 4° C. and supernatants were analyzed for protein content using BCA assay (Pierce™ BCA Protein Assay Kit, cat #23227, ThermoFisher Waltham, Mass. 02451) and equal amounts of protein/lane were used for subsequent immunoblot analyses. Proteins were denatured by adding NuPAGE LSD Sample Buffer [4×] […]

## CC(C)NCCOc1ncc(-c2cc3c4c(cnc3cc2F)N(C)C(=O)C42CCC2)cc1NS(C)(=O)=O [Compound 569, N-(5-(7′-Fluoro-3′-methyl-2′-oxo-2′,3′-dihydrospiro[cyclobutane-1,1′-pyrrolo[2,3-c]quinolin]-8′-yl)-2-(2-(isopropylamino)ethoxy)pyridin-3-yl)methanesulfonamide]
HCT116 p53 wild-type or p53-/- cells, 569 1 μM, ATMi + DNA-PKi 0.5 or 1 micromolar each, 0 or 10 Gy
  induction of phosphorylation (activation) of TBK1: more potent activator of TBK1 phosphorylation than either of the single target kinase inhibitors
HCT116 p53 wild-type vs p53-negative cells, 1 μM
  dependence of TBK1 activation on p53 status: independent of p53 status
